This note sets out measurements from patent publication US7763669B2, “Low-viscosity, radiation-curable formulation for producing adaptive earpieces” (Dreve-Otoplastik GmbH, priority 2004, dated 2010).

Series [1] can be described thus: Windowpane method for critical energy Ec and laser penetration depth Dp. The following applies: small quantities added to resin formulation; for Influence of inhibitor addition on penetration depth of the laser beam Dp: FIGS. 3 and 5; for Influence of inhibitor addition on critical energy Ec: FIGS. 4 and 6. The class given is physicochemical. The protocol:
The influence of the concentration of phenothiazine (PTZ) and 2,2-diphenyl-1-picrylhydrazyl radical (DPPH) in the formulations of Examples 1 and 2 on the penetration depth of the laser beam and the critical energy is illustrated in FIGS. 3 through 6. The laser penetration depth and the critical energy were determined using the windowpane method described by P. F. Jacobs and D. T. Reid in Rapid Prototyping & Manufacturing, Society of Manufacturing Engineers, Dearborn, Mich., 1992, 1st Ed., pp. 263-280. […] This influence of the inhibitors phenothiazine (PTZ) and 2,2-diphenyl-1-picrylhydrazyl radical (DPPH) on the is relevant parameter Ec (critical energy, mJ·cm^−2) and Dp (laser penetration depth, mils) for the stereolithographic resin differs from the influence of the inhibitors, such as p-methoxyphenol, added to the stereolithographic resins corresponding to the prior art (L. E. Levy, J. Polym. Sci., Part A, Polym. Chem. 30 (1992), 569ff). For example, in comparison to p-methoxyphenol the parameters Ec and Dp may be linearly adjusted in a wider range by small concentrations of the inhibitors. This is of great advantage, particularly for the production of such resins and adjustment of the above-described parameters. From a technical production standpoint this may be used to adjust the laser penetration depth that has a direct influence on the accuracy of the production process. For example, performing curing over a value of laser penetration depth that exceeds the desired layer thickness for the process reduces the resolution of the process. High values of the laser penetration depth play an important role in particular for transparent stereolithographic resins that preferably are used for producing otoplastic parts. In the case of stereolithographic resins in the medical field, however, in particular stereolithographic resins for the production of the above-described adaptive earpieces, the accuracy of the production, and thus, the fit, of the molded body is of paramount importance.
(§1) Table 2 lists the parameters for the above-described resins that are relevant for the stereolithographic process. All viscosity measurements were performed at 23° C. using a CVO rheometer from Bohlin Instruments. The flexural strength, modulus of elasticity, and elongation were determined in accordance with EN ISO 178 (1996), using a Zwick 1 test unit from Zwick. For determining the Ec and Dp values using the above-described windowpane method, in each case the average values were determined for 10 windowpane test pieces. The test pieces were produced using a Viper si2 SLA system (3D Systems) equipped with a Nd:YVO4 solid-state laser. The green compacts were post-cured for 2×7 min, using the Fototec PCU stroboscope irradiation unit from Dreve.

Series [2] can be described thus: Flexural strength, modulus of elasticity and elongation per EN ISO 178 (Zwick 1 test unit) on post-cured test pieces. The class given is physicochemical. The protocol: The flexural strength, modulus of elasticity, and elongation were determined in accordance with EN ISO 178 (1996), using a Zwick 1 test unit from Zwick. The test pieces were post-cured for 2×7 min, using the PCU stroboscope irradiation unit from Dreve.
as §1

Setting [3] is: resin formulation from Example 2, inhibitor concentration 0.025 % by wt.
[4] abbreviates: resin formulation from Example 2, inhibitor concentration 0.05 % by wt.
The mark [5] stands for this setting: resin formulation from Example 2, inhibitor concentration 0.10 % by wt.
The mark [6] stands for this setting: resin formulation from Example 2, inhibitor concentration 0.15 % by wt.
Setting [7] is: resin formulation from Example 2, inhibitor concentration 0.01 % by wt.

Regarding `c1ccc2c(c1)Nc1ccccc1S2` [Phenothiazine, phenothiazine], in series [1], the “Influence of inhibitor addition on penetration depth of the laser beam Dp” value is “linear decrease” and the “Influence of inhibitor addition on critical energy Ec” value is recorded as “sharp, essentially linear increase”. For the same compound, in series [2] (setting [3]), the Elongation to break was found to be 15%, the Flexural strength is 95 N · mm^−2 and the Modulus of elasticity was determined as 1867 N · mm^−2. In series [2] (setting [4]), the Elongation to break came to 13%, the Flexural strength is given as 95 N · mm^−2 and the Modulus of elasticity turned out to be 1989 N · mm^−2. Further, in series [2] (setting [5]), the Elongation to break was found to be 12%, the Flexural strength is 101 N · mm^−2 and the Modulus of elasticity came out at 2007 N · mm^−2. In series [2] (setting [6]), the Elongation to break was 10%, the Flexural strength was 89 N · mm^−2 and the Modulus of elasticity is given as 1832 N · mm^−2.

As for “2,2-diphenyl-1-picrylhydrazyl radical [DPPH]”, in series [1], the “Influence of inhibitor addition on penetration depth of the laser beam Dp” value is “linear decrease” and the “Influence of inhibitor addition on critical energy Ec” value is on record as “sharp, essentially linear increase”. In series [2] (setting [7]), this compound had an Elongation to break of 13%, a Flexural strength of 61 N · mm^−2 and a Modulus of elasticity of 1452 N · mm^−2. In series [2] (setting [3]), this compound registered an Elongation to break of 11%, a Flexural strength of 69 N · mm^−2 and a Modulus of elasticity of 1324 N · mm^−2. In series [2] (setting [4]), this compound registered an Elongation to break of 10%, a Flexural strength of 66 N · mm^−2 and a Modulus of elasticity of 1277 N · mm^−2.
